Assay results: US9643032B2, “Application of dehydroascorbic acid or derivatives/isomers thereof for artificially coloring the skin” (L'Oreal, priority 2007, dated 2017)

System: Episkin model of reconstructed skin
Test: Skin coloring on the Episkin model of reconstructed skin, spectrocolorimeter measurement after washing
Assay type: cell-based
Method: The products are evaluated on the Episkin model of reconstructed skin after 18 days of culturing. The crucibles are placed on Whatman paper. 20 μl of a 5 wt % solution of test product in a 50% water/50% ethanol mixture. […] A second rinse is performed with 1 ml of water. The residual liquid is absorbed using a soft paper tissue. The measurements are taken using a Minolta CM-2600d spectrocolorimeter.
Spectrocolorimeter Minolta CM2600d
The results are expressed in the system (L*, a*, b*) dans lequel L* is the luminance, a* is the red-green axis (−a*=green, +a*=red) and b* is the yellow/blue axis (−b*=blue, +b*=yellow). Therefore, a* and b* express the coloring of the skin.
The color deviation is obtained with the color deviation formula of Hunter in the calorimetric domain L, a, b: (ΔE)^2=[(ΔL)^2+(Δa)^2+(Δb)^2]. ΔE is the darkening, the global intensity of the color: The more ΔE is important the more the color darkened.

[1] = 5 wt % solution in 50% water/50% ethanol, 20 μl, after 24 hours, after washing

With `O=C1OC(C(O)CO)C(=O)C1=O` (stereo not drawn) [Dehydroascorbic acid, threo-2,3-hexodiulosono-1,4-lactone, 9CI] the “L* (luminance / intensity)” value [1] was 77.7, the “a* (red component)” value [1] was 4.8 and the “b* (yellow component)” value [1] was 35. For the same molecule, the “ΔE*ab (color deviation, darkening)” value (5 wt % solution, after 24 hours, after washing, deviation versus Episkin alone) was 14.6 and the “Shade obtained compared with DHA” value (concentration equal to 5 wt %) was “stronger shade with a more pronounced dominant red”.
